Measured values as given in ChEMBL document CHEMBL3244320, “2-Acetylpyridine thiosemicarbazones. 1. A new class of potential antimalarial agents” (J Med Chem, 1979).

Tests used:
Format in all cases: functional
Details in all cases: route subcutaneous
Plasmodium berghei [1] = assay: Antimalarial activity against Plasmodium berghei KBG 173 infected in ICR/HA Swiss mouse assessed as increase in mean survival time at 320 mg/kg, sc administered 72 hrs post infection
Plasmodium berghei [2] = assay: Antimalarial activity against Plasmodium berghei KBG 173 infected in ICR/HA Swiss mouse assessed as increase in mean survival time at 640 mg/kg, sc administered 72 hrs post infection
Plasmodium berghei [3] = assay: Antimalarial activity against Plasmodium berghei KBG 173 infected in ICR/HA Swiss mouse assessed as increase in mean survival time at 40 mg/kg, sc administered 72 hrs post infection
Plasmodium berghei [4] = assay: Antimalarial activity against Plasmodium berghei KBG 173 infected in ICR/HA Swiss mouse assessed as increase in mean survival time at 160 mg/kg, sc administered 72 hrs post infection
Plasmodium berghei [5] = assay: Antimalarial activity against Plasmodium berghei KBG 173 infected in ICR/HA Swiss mouse assessed as increase in mean survival time at 80 mg/kg, sc administered 72 hrs post infection

Row | SMILES | MST (Plasmodium berghei [1]) | MST (Plasmodium berghei [2]) | MST (Plasmodium berghei [3]) | MST (Plasmodium berghei [4]) | MST (Plasmodium berghei [5])
1 | C/C(=N\NC(=S)Nc1ccc(C(C)C)cc1)c1ccccn1 | 5.9 days | 5.5 days | 0.5 days | 2.1 days | 1.9 days
2 | C/C(=N\NC(=S)Nc1ccccc1)c1ccccn1 | – | – | 3.1 days | 11.1 days | 4.7 days
3 | C/C(=N\NC(=S)NCc1cccc(C)c1)c1ccccn1 | – | 6.5 days | 0.3 days | 0.7 days | –
4 | C/C(=N\NC(=S)Nc1c(Cl)cccc1Cl)c1ccccn1 | – | 0.1 days | 0.1 days | 0.9 days | –
5 | C/C(=N\NC(=S)Nc1c(C)cccc1C)c1ccccn1 | 5.8 days | 11.4 days | 0.4 days | 2 days | 0.4 days
6 | CCOC(=O)c1ccc(NC(=S)N/N=C(\CC)c2ccccn2)cc1 | – | 0.5 days | 0.3 days | 0.5 days | –
7 | C/C(=N\NC(=S)NCc1cccnc1)c1ccccn1 | – | 0.6 days | 0.1 days | 0.3 days | –
8 | C/C(=N\NC(=S)Nc1ccc(F)cc1)c1ccccn1 | 7.7 days | – | 1.3 days | 3.9 days | 3.7 days
9 | C/C(=N\NC(=S)NCc1ccncc1)c1ccccn1 | – | 0 days | 0.3 days | 0.4 days | –
10 | COc1ccc(NC(=S)N/N=C(\C)c2ccccn2)cc1 | – | 1.7 days | 2.1 days | 9.7 days | –
11 | C/C(=N\NC(=S)Nc1cc(Cl)c(Cl)cc1Cl)c1ccccn1 | – | -0.1 days | -0.3 days | 0.1 days | –
12 | C/C(=N\NC(=S)Nc1ccc(S(=O)(=O)c2ccc(NC(=S)N/N=C(\C)c3ccccn3)cc2)cc1)c1ccccn1 | – | 0.3 days | 0.1 days | 0.1 days | –
13 | COc1ccc(CNC(=S)N/N=C(\C)c2ccccn2)cc1 | 5.9 days | 7.9 days | 0.3 days | 2.9 days | 1.7 days
14 | CC/C(=N\NC(=S)NC12CC3CC(CC(C3)C1)C2)c1ccccn1 | 6.3 days | 9.1 days | – | 3.7 days | 0.3 days
15 | C/C(=N\NC(=S)NC(c1ccccc1)(c1ccccc1)c1ccccc1)c1ccccn1 | – | 0.1 days | 0.1 days | 0.1 days | –
16 | C/C(=N\NC(=S)Nc1ccc(Cl)cc1Cl)c1ccccn1 | – | 0.7 days | -0.1 days | 0.3 days | –
17 | C/C(=N\NC(=S)Nc1ccc(Br)cc1)c1ccccn1 | – | 0.5 days | 0.3 days | 0.3 days | –
18 | C/C(=N\NC(=S)NC(C)c1ccc(F)cc1)c1ccccn1 (stereo not given) | 5.2 days | – | 1.1 days | 8.5 days | 5.5 days
19 | CCOC(=O)c1ccc(NC(=S)N/N=C(\C)c2ccccn2)cc1 | – | 0.6 days | 0.3 days | 0.3 days | –
20 | C/C(=N\NC(=S)NC(C)(C)CC(C)(C)C)c1ccccn1 | 2.9 days | 8.7 days | 1.1 days | 0.9 days | 1.3 days
21 | C/C(=N\NC(=S)NCc1cccc(F)c1)c1ccccn1 | 5.8 days | 9.4 days | 0.4 days | 3.4 days | 1.4 days

Row | SMILES | MST (Plasmodium berghei [1]) | MST (Plasmodium berghei [2]) | MST (Plasmodium berghei [3]) | MST (Plasmodium berghei [4]) | MST (Plasmodium berghei [5])
22 | CC/C(=N\NC(=S)Nc1ccc(Cl)cc1)c1ccccn1 | – | 1.1 days | 0.3 days | 0.7 days | –
23 | C/C(=N\NC(=S)NCc1ccc(C)c(C)c1)c1ccccn1 | – | 2.1 days | 0.3 days | 0.1 days | –
24 | CC/C(=N\NC(=S)Nc1ccc(Br)cc1)c1ccccn1 | – | 0.7 days | 0.3 days | 0.3 days | –
25 | CCOC(=O)CNC(=S)N/N=C(\C)c1ccccn1 | – | 0.3 days | 0.1 days | 0.1 days | –
26 | C/C(=N\NC(=S)Nc1cc(Cl)cc(Cl)c1)c1ccccn1 | – | 0 days | -0.2 days | -0.2 days | –
27 | C/C(=N\NC(=S)Nc1ccncc1)c1ccccn1 | – | 0.9 days | 0.1 days | 0.3 days | –
28 | C/C(=N\NC(=S)Nc1ccc(O)cc1)c1ccccn1 | – | 0.6 days | 0.1 days | 0.3 days | –
29 | C/C(=N\NC(=S)Nc1ccccc1Cl)c1ccccn1 | 6.1 days | 8.1 days | 0.5 days | 2.3 days | 0.5 days
30 | C/C(=N\N=C(/S)NCc1ccccc1)c1ccccn1 | – | 10.6 days | 0.5 days | 3.7 days | –
31 | C/C(=N\NC(=S)NCc1ccccn1)c1ccccn1 | – | 0.9 days | 0.1 days | 0.3 days | –
32 | C/C(=N\NC(=S)Nc1cccc(Cl)c1Cl)c1ccccn1 | – | 0.6 days | -0.2 days | 0.2 days | –
33 | C/C(=N\NC(=S)N1CC1)c1ccccn1 | – | 0.1 days | 0.1 days | 0.1 days | –
34 | C/C(=N\NC(=S)Nc1ccccc1C)c1ccccn1 | 5.1 days | 9.9 days | 0.1 days | 0.9 days | 0.5 days
35 | C/C(=N\NC(=S)Nc1ccc(Cl)c(Cl)c1Cl)c1ccccn1 | – | -0.3 days | 0.1 days | 0.1 days | –
36 | C/C(=N\NC(=S)NC12CC3CC(CC(C3)C1)C2)c1ccccn1 | 8.5 days | 9.2 days | 0.7 days | 3.7 days | 1.1 days
37 | C/C(=N\NC(=S)NCc1ccc(Cl)cc1Cl)c1ccccn1 | – | 2 days | 0.4 days | 1 days | –
38 | CCOC(=O)CNC(=S)N/N=C(\CC)c1ccccn1 | – | 0.5 days | 0.3 days | 0.3 days | –
39 | C/C(=N\NC(=S)NCCc1ccccc1)c1ccccn1 | 6.6 days | 8.8 days | -0.2 days | 2 days | 0.6 days
40 | C/C(=N\NC(=S)Nc1ccccc1[N+](=O)[O-])c1ccccn1 | 5.7 days | 4.5 days | 0.1 days | 0.9 days | 0.1 days
41 | CCc1ccc(NC(=S)N/N=C(\C)c2ccccn2)cc1 | 3.1 days | 5.7 days | 0.3 days | 2.1 days | 1.5 days
42 | C/C(=N\NC(=S)NCc1ccccc1Cl)c1ccccn1 | – | 1.9 days | 0.3 days | 0.3 days | –

Row | SMILES | MST (Plasmodium berghei [1]) | MST (Plasmodium berghei [2]) | MST (Plasmodium berghei [3]) | MST (Plasmodium berghei [4]) | MST (Plasmodium berghei [5])
43 | CC/C(=N\NC(=S)Nc1ccccc1)c1ccccn1 | – | – | 0 days | 2.6 days | 1.2 days
44 | COc1cc(NC(=S)N/N=C(\C)c2ccccn2)c2nccc(C)c2c1 | – | 0.3 days | 0.1 days | 0.1 days | –
45 | CC/C(=N\NC(=S)NC(c1ccccc1)(c1ccccc1)c1ccccc1)c1ccccn1 | – | 0.3 days | 0.1 days | 0.1 days | –
46 | C/C(=N\NC(=S)NCc1ccc(C)cc1)c1ccccn1 | 5.7 days | – | 0.1 days | 4.3 days | 1.7 days
47 | C/C(=N\NC(=S)Nc1cc(Cl)ccc1Cl)c1ccccn1 | – | 0.1 days | -0.1 days | 0.1 days | –
48 | C/C(=N\NC(=S)Nc1cccnc1)c1ccccn1 | – | 1.3 days | 0.3 days | 0.5 days | –
49 | C/C(=N\NC(=S)NCc1ccc(Cl)c(Cl)c1)c1ccccn1 | – | 0.1 days | 0.1 days | 0.5 days | –
50 | C/C(=N\NC(=S)Nc1ccc(Cl)c(Cl)c1)c1ccccn1 | – | 0.5 days | 0.5 days | 0.5 days | –
51 | CCCCc1ccc(NC(=S)N/N=C(\C)c2ccccn2)cc1 | – | 9.9 days | 0.3 days | 3.9 days | –
52 | C/C(=N\NC(=S)NCc1cccc(Cl)c1)c1ccccn1 | 0 days | -0.4 days | – | 1.6 days | 0 days
53 | C/C(=N\NC(=S)Nc1c2ccccc2nc2ccccc12)c1ccccn1 | – | 0.5 days | 0.3 days | 0.3 days | –
54 | C/C(=N\NC(=S)Nc1cccc(Br)c1)c1ccccn1 | – | 0.9 days | 0.1 days | 0.3 days | –
55 | CC/C(=N\NC(=S)Nc1cccc(Cl)c1)c1ccccn1 | – | 0.5 days | 0.3 days | 0.3 days | –
56 | C/C(=N\NC(=S)Nc1cccc([N+](=O)[O-])c1)c1ccccn1 | – | -0.1 days | 0.1 days | -0.3 days | –
57 | C/C(=N\NC(=S)Nc1ccc([N+](=O)[O-])cc1)c1ccccn1 | – | 0.5 days | 0.1 days | 0.1 days | –
58 | C/C(=N\NC(=S)Nc1ccccc1Br)c1ccccn1 | – | 0.9 days | 0.1 days | 0.5 days | –
59 | CC/C(=N\NC(=S)Nc1ccccc1Cl)c1ccccn1 | – | 0.3 days | 0.1 days | 0.1 days | –
60 | COc1ccc(NC(=S)N/N=C(\C)c2ccccn2)nn1 | – | 0.2 days | 0.1 days | 0.1 days | –
61 | CC/C(=N\NC(=S)Nc1ccc([N+](=O)[O-])cc1)c1ccccn1 | – | 0.3 days | 0.1 days | 0.1 days | –
